Values joined by “and” are separate entries in the source; they are usually repeats but may differ in a detail not shown here. Equal values may be shown once. Active and inactive are the calls of the source.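 How the source made its calls: active means EC50 under a set limit in control cells lacking the mosquito receptor, marking a fluorescence artifact; inactive means the rest.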

In this experiment the target is HEK293 Galpha15/GCaMP6s without NPYLR7, calcium fluorescence. Put plainly: calcium response in NPYLR7-null HEK293 cells, dose response, counter-screen for mosquito NPYLR7 agonist project, cell-based, HEK293 lacking NPYLR7 (AID 1259426;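 further: potency for a rise in fluorescence over baseline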). (A counterscreen serves to expose hits that act by an unwanted route or on another target.)
Usually EC50 stands for the concentration at which the effect is half-maximal. As to `Cc1c(NC(=O)COC(=O)C(C#N)=Cc2ccc(N(C)C)cc2)c(=O)n(-c2ccccc2)n1C`, the EC50 is > 20 µM (inactive).
Under `CCNC(=O)[C@H]1O[C@@H](n2cnc3c(N)ncnc32)C(O)[C@H]1O` (stereo not given in full) stands below 0.039 µM; under `O=C1/C(=C/c2cc3ccccc3o2)Oc2c1ccc(O)c2CN1CCN(CCO)CC1`, 1.94 µM.
Under `COc1ccc(C(C)NS(=O)(=O)c2ccc(Cl)cc2C(F)(F)F)cc1F` (stereo not given) stands 15.3 µM.
For `CCN(CC)c1ccc2c(-c3ccccc3C(=O)O)c3ccc(=[N+](CC)CC)cc-3oc2c1`, the half-maximal effective concentration (EC50) is 3.62 µM.
Under `NC(=O)CN1c2cccc3cccc(c23)S1(=O)=O` stands > 20 µM (inactive); under `CCOc1cc(/C=C2\C(=N)N3N=CSC3=NC2=O)cc(Br)c1OC(=O)c1ccccc1`, 3.04 µM.
Under `Cc1ccc(CNC(=O)NC(c2ccc3c(c2)OCCCO3)C(C)C)cc1F` (stereo not given) stands > 20 µM (inactive); under `CCN(CC)CCNC(=O)c1c(C)[nH]c(/C=C2/C(=O)Nc3ccc(F)cc32)c1C`, 11.3 µM.
Take `N#Cc1cc(C(=O)c2cc(Cl)cc(Cl)c2O)cn(-c2nccs2)c1=O`: the EC50 is > 20 µM (inactive).
Under `CN1C=CC(=C/C=C2/C=Nc3ccccc32)C=C1` stands 9.41 µM.
Under `C[C@H](O)C(=O)C1=Nc2c(nc(N)[nH]c2=O)NC1` stands > 20 µM (inactive); under `CCOC(=O)c1cc(O)c(C(=O)OCC)s1`, > 20 µM (inactive).
As to `COc1ccc(C(=O)C=Cc2cc(Br)c(O)c(OC)c2)cc1F`, the half-maximal effective concentration (EC50) is below 0.039 µM.
Under `O=C(N=Nc1c(O)[nH]c2ccc(Br)cc12)c1ccccc1Cl` stands > 20 µM (inactive); under `CCOC(=O)N1CCC(NC(=O)c2sc3nc4c(c(C(F)(F)F)c3c2N)CC(C)CC4)CC1` (stereo not given), > 20 µM (inactive).
For `COC(=O)C1CCN(S(=O)(=O)c2c(F)cc(F)cc2Br)CC1`, the EC50 was > 20 µM (inactive).
Under `N#C/C(=C/c1ccc(N2CCCCCC2)o1)c1ccc(F)cc1` stands 19.3 µM.
Under `COc1ccc(CCN2COc3ccc4c(c3C2)O/C(=C\c2cccnc2)C4=O)cc1` stands > 20 µM (inactive); under `O=C(O)c1ccccc1-c1c2cc(Br)c(=O)cc-2oc2[c]([Hg])c(O)c(Br)cc12`, below 0.039 µM.
Under `CCN(CC)c1ccc(/C=C2\SC(=S)N(CCS(=O)(=O)O)C2=O)cc1` stands 0.039 µM; under `CCOC(=O)C1CCCN(CC(=O)N2N=C(c3ccccc3Cl)CC2c2ccc(Cl)cc2)C1` (stereo not given), > 20 µM (inactive); under `Cc1cc2c(c(-c3ccc4c(cnn4C)c3)c1)OC(CN)C2` (stereo not given), > 20 µM (inactive).
For `COc1ccc(NC[C@@H]2C=C(C)[C@H](Cc3nnc(C)o3)C[C@H]2C(C)C)cn1`, the EC50 was 13.3 µM.
Under `Cc1cccc(C2=N/C(=C\c3cc4cc5c6c(c4oc3=O)CCCN6CCC5)C(=O)O2)c1` stands 0.219 µM; under `Cc1cc(O)c(CN2CCCCC2)c2c1C(=O)/C(=C/c1cc3ccccc3o1)O2`, 18.5 µM.
Take `N#CC(C#N)=C1C=C2C=C(N3CCCCC3)CCC2CC1` (stereo not given): the EC50 was below 0.039 µM.
Under `CCN=c1cc2oc3cc(NCC)c(C)cc3c(-c3ccccc3C(=O)OCC)c-2cc1C` stands 0.0953 µM; under `CN(Cc1cnc2ccccc2n1)C(=O)C1CC2(CCNCC2)CN1` (stereo not given), > 20 µM (inactive); under `Cc1ccc2nc(Cn3cnc4c(Cl)cc(Cl)cc4c3=O)cc(=O)n2c1`, > 20 µM (inactive).
Under `Oc1oc(-c2ccccc2Br)nc1C=Nc1ccccc1` stands 10.6 µM; under `Cc1nc(=O)c(-c2ccccc2)c(C)n1-c1ccccc1O`, > 20 µM (inactive); under `CSc1nc(N)c2ncn([C@@H]3O[C@H](COP(=O)(O)OP(=O)(O)OP(=O)(O)O)[C@H](O)C3O)c2n1` (stereo not given in full), 0.401 µM.
Under `COc1ccc(N2CCN(c3cc(C(F)(F)F)nc(SCc4cccc(C(=O)NCc5ccccn5)c4)n3)CC2)cc1` stands > 20 µM (inactive); under `CSc1nnc2c(n1)OC(c1ccc(OC(=O)c3ccc(Br)cc3)cc1)Nc1ccccc1-2` (stereo not given), > 20 µM (inactive).
For `COc1cc(C=C2Oc3cc(O)ccc3C2=O)cc(OC)c1OC`, the 50% effective concentration (EC50) was 4.83 µM.
Under `O=C1/C(=C/c2cccc(F)c2)Oc2c1ccc(O)c2CN1CCN(CCO)CC1` stands 13.9 µM; under `Clc1ccc(-c2noc3c2CN(CCn2cc(Cl)cn2)CC3)cc1`, 15.4 µM; under `CCCC[n+]1c(C)cc(C=C2Sc3ccccc3N2C)cc1C`, > 20 µM (inactive).
For `Cn1c(/C(C#N)=C/c2ccc(N3CCOCC3)o2)nc2ccccc21`, the EC50 was > 20 µM (inactive).
Under `Cc1cc(O)c(CN2CCCC2)c2c1C(=O)/C(=C/c1cc3ccccc3o1)O2` stands > 20 µM (inactive); under `Cc1ccc(Cl)c(Oc2cc(N3CCN(C(=O)c4ccc(Cl)c(Cl)c4)CC3)ncn2)c1`, > 20 µM (inactive); under `CC[C@@]1(O)C(=O)OCc2c1cc1n(c2=O)Cc2cc3c(CN(C)C)c(O)ccc3nc2-1`, 0.188 µM and 1.35 µM.
Under `CN(C)c1ccc(/C=C2/SC(=S)N(CC(=O)O)C2=O)cc1Br` stands 0.346 µM; under `CC(=O)OC(C)C[N+](C)(C)C` (stereo not given), > 20 µM (inactive).
Under `Nc1nc(Cl)nc2c1ncn2[C@@H]1O[C@H](CO)[C@H](O)C1O` (stereo not given in full) stands 1.42 µM; under `COc1cccc(CNC2CC2)c1OCc1nc(CO)cs1`, > 20 µM (inactive).
Regarding `C=C(C)Cn1c(C(=O)N2CCN(C(=O)CCC(=O)OCC)C(C)C2)cc2ccoc21` (stereo not given), the EC50 was > 20 µM (inactive).
Under `Cc1ccc(OCCNC(=O)N2CCN(S(=O)(=O)c3ccccc3Cl)CC2)c(C)c1` stands > 20 µM (inactive).
`CCOC(=O)N1CCN(c2ccc(/C=C(\C#N)c3nc4ccccc4[nH]3)o2)CC1`: the EC50 is > 20 µM (inactive).
Under `Fc1cc(F)cc(C2C=C(c3ccco3)Nc3ncnn32)c1` (stereo not given) stands 8.31 µM; under `COCCN=Cc1cc(I)cc(I)c1O`, > 20 µM (inactive).
On to `CCOC(=O)c1c(-c2ccccc2)csc1N=Cc1nc(-c2ccccc2)oc1O`, for which the EC50 was > 20 µM (inactive).
Under `CCN1C(=Cc2ccc3cc(C)ccc3[n+]2CC)Sc2ccccc21` stands 0.911 µM.
With `O=C(O)CN1C(=O)/C(=C\c2cc([N+](=O)[O-])cc(Br)c2O)SC1=S`, the EC50 is 1.07 µM.
Under `COc1ccc(CN2CCN(Cc3cccn3-c3ncccn3)CC2CCO)c(C)c1C` (stereo not given) stands > 20 µM (inactive); under `COc1ccc(/C=C2\Oc3c(ccc4c3CN(CC3CCCO3)CO4)C2=O)cc1OC` (stereo not given), 4.8 µM.
Regarding `CCOC(=O)c1ccccc1-c1c2ccc(=N)cc-2oc2cc(N)ccc12`, the EC50 is below 0.039 µM.
Under `O=c1oc2c(CN3CCN(CCO)CC3)c(O)ccc2cc1-c1nc2ccccc2s1` stands below 0.039 µM; under `Cc1cc(O)c(CN2CCN(C)CC2)c2c1C(=O)/C(=C/c1cccs1)O2`, 16.8 µM; under `CCc1ccc(/C=C2\Oc3c(ccc4c3CN(C3CCS(=O)(=O)C3)CO4)C2=O)cc1` (stereo not given), 10.6 µM.
Under `O=C(CSc1cn(CC(=O)N2CCCCCC2)c2ccccc12)NC1CCCC1` stands > 20 µM (inactive); under `O=C1Nc2ccccc2C1C=NN1CCOCC1` (stereo not given), > 20 µM (inactive).
Under `N#CC(C#N)=C1C=C2C=C(N3CCCCCC3)CCC2CC1` (stereo not given) stands below 0.039 µM; under `CCN(CC)CCCC(C)Nc1c2ccc(Cl)cc2nc2ccc(OC)cc12` (stereo not given), 4.89 µM and 1.41 µM; under `O=C(O)CN1C(=O)/C(=C\c2ccc(O)cc2)SC1=S`, 13.3 µM.
Regarding `CN(C)/C=C1\C(=O)N(c2c(Cl)cccc2Cl)c2cc(C=C(C#N)C#N)ccc21`, the EC50 is 18.4 µM.
Under `CCOCCCN1C(=O)C(=Cc2ccccc2O)NC1=S` stands 0.0898 µM.
Under `COc1ccc(-n2ccnc2-c2ccc(C#CC(C)(C)O)cc2)cn1` stands > 20 µM (inactive).
Under `CC1C(=O)N(c2cccc(F)c2)CCN1C(=O)C1CC1` (stereo not given) stands > 20 µM (inactive); under `O=C1OC2(c3cc(Br)c(O)cc3Oc3c2cc(Br)c(O)[c]3[Hg])c2ccccc21` (stereo not given), below 0.039 µM.
Take `CC1(C)OC2OC(C(O)c3cc(O)c4c(c3O)C(=O)c3ccccc3C4=O)C(C)(O)C2O1` (stereo not given): the EC50 is 1.86 µM.
Under `NC(=NC1C2CC3CC(C2)CC1C3)Nc1ccc(I)cc1` (stereo not given) stands 14.1 µM; under `CC(C)NC[C@@H](O)c1ccc(O)c(O)c1`, 1.37 µM; under `CSc1ccc(C2CC(c3ccc(Cl)cc3)=Nc3ncnn32)cc1` (stereo not given), > 20 µM (inactive).
Turning to `C#CCN1C(=O)SC(=Cc2ccc(N3CCCCC3)o2)C1=O`, the concentration giving a half-maximal response (EC50) was 2.36 µM.
Under `O=C1OC(c2ccc(Cl)c([N+](=O)[O-])c2)=N/C1=C\c1cc2cc3c4c(c2oc1=O)CCCN4CCC3` stands below 0.039 µM; under `COc1ccc(CC2c3cc(OC)c(OC)cc3CC[N+]2(C)CCC(=O)OCCCCCOC(=O)CC[N+]2(C)CCc3cc(OC)c(OC)cc3C2Cc2ccc(OC)c(OC)c2)cc1OC` (stereo not given), > 20 µM (inactive); under `O=c1oc2cc(O)ccc2cc1-c1nc2ccccc2o1`, 4.91 µM.
In the case of `N#Cc1cccc(C(=O)N2CCN(C(c3ccccc3)c3ccc(Br)cc3)CC2)c1` (stereo not given), the EC50 is > 20 µM (inactive).
Turning to `Cc1ccc(C(=O)C=Cc2ccc(N(C)C)cc2)o1`, the EC50 is below 0.039 µM.
As for `O=c1nc2n3ccc(-c4ccncc4)cc3ncc-2s1`, the EC50 was 18.3 µM.
Under `O=c1[nH]c(CCl)nc2sc3c(c12)CCN(Cc1ccccc1)C3` stands > 20 µM (inactive); under `CC(C)NC[C@H](O)c1ccc(O)c(O)c1`, below 0.039 µM.
Under `N#C/C(=C\c1ccc(O)c(O)c1)C(=O)NCc1ccccc1` stands > 20 µM (inactive); under `CS(=O)(=O)Nc1nc2n(n1)C(c1ccccc1)CC(c1ccc(Cl)cc1)=N2` (stereo not given), > 20 µM (inactive).
On to `CCC(C)[n+]1c(C)cc(C=C2Sc3ccccc3N2CC)cc1C` (stereo not given), for which the EC50 was 3.73 µM.
With `CCN(CC)c1ccc(/C=C2/SC(=S)N(CC(=O)O)C2=O)cc1`, the EC50 is 0.355 µM.
Under `COc1ccc(-n2ccnc2-c2nc(-c3cccs3)oc2C)cn1` stands > 20 µM (inactive); under `O=C(O)c1csc(CSc2nnc(-c3ccncc3)n2-c2cccc(C(F)(F)F)c2)n1`, > 20 µM (inactive).

The record behind these values is PubChem BioAssay AID1259426 (Fisher Drug Discovery Resource Center, 2018).
